Assay results: patent publication US20090118470A1 (priority 2005, published 2009)
Read-outs that look alike come from different tables or passages of the source.

Legend:
prions [1] = settings: cited from earlier work; for effect on prions: alcohols alone
[2] = system: 263K strain of scrapie agent; type: in vivo, Syrian gold hamsters; settings: for inactivation factor: at 80° C.; for Mean incubation period ± SE: diseased animals only; for No. infected/No. injected: intracerebral inoculation
prions [3] = settings: cited from earlier work

## CCCO [1-propanol]
Prions [1]
  effect on prions: do not have an effect on prions

## CC(C)O [2-propanol]
Prions [1]
  effect on prions: do not have an effect on prions

## O [100% water, water]
[2]
  inactivation factor: about 10
[2]; heat treatment 80° C./20 min.
  Infectivity titre ± SE: 7.2 ± 0.7 log ID50 per sample
  Mean incubation period ± SE: 78 ± 4 days
  No. infected/No. injected: 5/5
[2]; heat treatment 90° C./20 min.
  Infectivity titre ± SE: 6.2 ± 0.2 log ID50 per sample
  Mean incubation period ± SE: 85 ± 1 days
  No. infected/No. injected: 5/5
[2]; heat treatment 100° C./20 min.
  Infectivity titre ± SE: 5.0 ± 0.1 log ID50 per sample
  Mean incubation period ± SE: 97 ± 1 days
  No. infected/No. injected: 5/5

## CCCCCCCCCCCCOS(=O)(=O)[O-].[Na+] [SDS, Sodium dodecylsulfate]
Prions [1]; heated in SDS solution (3% or greater; 0.10 M) for at least ten minutes, without autoclaving
  residual infectivity after treatment: Some residual infectivity remains

## CCO [ethanol]
Prions [1]
  effect on prions: do not have an effect on prions

## OCC(O)CO [glycerol]
[2]
  inactivation factor: < 10

## Cl.N=C(N)N [guanidinium hydrochloride]
Prions [3]; 6 N guanidinium hydrochloride (573 g/l)
  conversion of prions into an irregular coiled structure: complete conversion

## NC(N)=O [urea]
Prions [3]; 8 N urea (480 g/l)
  conversion of prions into an irregular coiled structure: complete conversion

## guanidinium isothiocyanate
Prions [1]; concentration of 3 M, immersion times longer than 1 hour
  prion inactivation: inactivates prions
Prions [1]; concentration of 4 M, at least 15 minutes residence time
  illness of experimental animals after intracerebral inoculation: no experimental animal in various experiments is reported to become ill
Prions [3]; 1.5 N solution (177 g/l)
  denaturing effect: partially denaturing effect
